Data taken from patent publication EP0717746B1, “PHOSPHINIC ACID DERIVATIVES WITH ANTI-HYPER GLYCEMIC AND/OR ANTI-OBESITY ACTIVITY” (SMITHKLINE BEECHAM PLC, priority 1993, dated 1995).

Biological target: T1, human β3-adrenoceptor (Homo sapiens, UniProt P13945)
T1 construct: expressed in transfected cells; host or cells: CHO cells (stably transfected subclones); plasma membranes prepared
Test: β3-Adrenoceptor-mediated adenylyl cyclase activity in CHO cell plasma membranes
Type: biochemical
Conditions: concentration of agonist producing 50 % activation of adenylyl cyclase; CHO cell plasma membranes transfected with the human β3-adrenoceptor; cAMP produced over 20 minutes
Description: Subclones of CHO cells were stably transfected with each of the human β1, β2 and β3-adrenoceptors^1. Cells were then disrupted by immersion in ice-cold lysis buffer (10 mM TRIS, 2mM EDTA , pH 7.4) containing protease inhibitors leupeptin and benzamidine (5 µg / ml) and soyabean trypsin inhibitor (10 µg / ml). Membranes were prepared by the method of Bouvier et. al.^2 and stored in 1 ml aliquots in liquid N2 for future use.
Adenylyl cyclase activity was assayed by the method of Kirkham et. al.^3 by the addition of 40 µl (70 -80 µg protein) to the incubation medium of the above CHO cell plasma membranes transfected with the human β3-adrenoceptor . cAMP produced over 20 minutes was separated from ATP by the method of Salomon et al.^4. Agonist EC50 values and intrinsic activities were expressed as the concentration of agonist producing 50 % activation of adenylyl cyclase and the maximum response produced by each agonist relative to that produced by (-) isoprenaline respectively.

T1 sequence (P13945 whole entry): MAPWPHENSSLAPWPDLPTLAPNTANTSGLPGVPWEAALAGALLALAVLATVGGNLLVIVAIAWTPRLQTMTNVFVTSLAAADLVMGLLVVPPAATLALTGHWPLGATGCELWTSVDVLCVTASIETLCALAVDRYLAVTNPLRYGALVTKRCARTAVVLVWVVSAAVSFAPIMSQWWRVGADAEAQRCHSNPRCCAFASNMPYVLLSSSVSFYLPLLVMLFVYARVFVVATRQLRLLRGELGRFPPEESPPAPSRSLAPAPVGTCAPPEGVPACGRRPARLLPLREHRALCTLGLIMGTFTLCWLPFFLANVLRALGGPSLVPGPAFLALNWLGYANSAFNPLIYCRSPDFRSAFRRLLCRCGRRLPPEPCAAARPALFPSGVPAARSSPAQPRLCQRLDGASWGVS

| Compound | EC50 |
| --- | --- |
| CCOP(=O)(CC)COc1ccc(CC(C)NC[C@H](O)c2ccc(O)c(O)c2)cc1 (some centres unmarked) [Example 2, (RR RS) Ethyl 4-[2-[2-(3,4-dihydroxyphenyl)-2-hydroxyethylamino]propyl]phenoxymethylethylphosphinate] | 460 nM |
| CC(Cc1ccc(OCP(=O)(O)c2ccccc2)cc1)NC[C@H](O)c1ccc(O)c(O)c1 (some centres unmarked) [Example 3, (RR RS) 4-[2-[2-(3,4-Dihydroxyphenyl)-2-hydroxyethylamino]propyl]phenoxymethyl phenylphosphinic acid.] | 540 nM |
